Among the data in the Kinase Knowledgebase extract (Sharma et al. 2016) are IC50 values, retold here.

EGFR (human), sequence (P00533 whole entry, looked up): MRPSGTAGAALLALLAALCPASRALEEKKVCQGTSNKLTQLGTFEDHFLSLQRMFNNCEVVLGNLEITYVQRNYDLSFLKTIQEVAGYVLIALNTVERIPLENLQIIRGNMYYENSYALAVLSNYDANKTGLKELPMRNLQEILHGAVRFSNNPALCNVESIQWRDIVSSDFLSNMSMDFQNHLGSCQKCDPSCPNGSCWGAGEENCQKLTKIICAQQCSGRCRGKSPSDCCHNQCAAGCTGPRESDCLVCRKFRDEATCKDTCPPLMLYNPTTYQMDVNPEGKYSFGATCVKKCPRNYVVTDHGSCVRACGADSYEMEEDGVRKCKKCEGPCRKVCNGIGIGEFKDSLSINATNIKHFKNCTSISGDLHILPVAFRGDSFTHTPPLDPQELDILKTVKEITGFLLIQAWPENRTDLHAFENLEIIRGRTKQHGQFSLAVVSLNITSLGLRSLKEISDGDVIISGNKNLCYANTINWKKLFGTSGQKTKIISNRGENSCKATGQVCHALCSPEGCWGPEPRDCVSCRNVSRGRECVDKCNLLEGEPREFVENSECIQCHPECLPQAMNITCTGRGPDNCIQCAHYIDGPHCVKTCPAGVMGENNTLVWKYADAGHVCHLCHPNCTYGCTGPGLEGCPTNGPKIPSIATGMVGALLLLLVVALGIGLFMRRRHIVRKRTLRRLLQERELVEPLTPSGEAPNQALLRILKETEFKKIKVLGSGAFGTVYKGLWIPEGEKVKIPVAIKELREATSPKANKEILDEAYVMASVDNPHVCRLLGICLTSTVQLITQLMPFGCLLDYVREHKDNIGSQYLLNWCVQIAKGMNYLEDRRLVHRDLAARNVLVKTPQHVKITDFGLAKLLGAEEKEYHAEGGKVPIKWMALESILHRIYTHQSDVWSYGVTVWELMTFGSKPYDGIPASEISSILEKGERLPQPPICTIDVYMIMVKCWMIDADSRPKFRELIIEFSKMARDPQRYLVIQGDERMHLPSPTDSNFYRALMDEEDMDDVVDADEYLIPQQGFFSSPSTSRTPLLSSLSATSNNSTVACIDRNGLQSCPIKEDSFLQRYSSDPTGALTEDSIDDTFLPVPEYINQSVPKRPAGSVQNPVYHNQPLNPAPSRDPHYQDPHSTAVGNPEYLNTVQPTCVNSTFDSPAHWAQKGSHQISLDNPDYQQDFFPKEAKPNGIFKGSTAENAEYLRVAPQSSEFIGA

The experiment has as its target EGFR (human) (UniProt P00533).
As usually defined, the IC50 is the concentration that gives 50% inhibition. A lower IC50 goes with greater potency in that assay. `Nc1cc2ncnc(Nc3cccc(F)c3)c2cn1` registered an IC50 of 851 nM.
`CN(C)c1cccc(Nc2ncnc3cc(N)ncc23)c1` had a half-maximal inhibitory concentration (IC50) of 1820 nM.
Under `COc1cccc(Nc2ncnc3cc(N)ncc23)c1` stands 132 nM; under `Nc1ccc2c(Nc3ccccc3)ncnc2c1`, 100 nM.
Molecule `Nc1cc2ncnc(Nc3ccccc3Br)c2cn1` gave an IC50 of 245 nM.
As to `Fc1cc2ncnc(Nc3cccc(Br)c3)c2cn1`, the IC50 amounted to 13.2 nM.
`Nc1cc2ncnc(Nc3cccc([N+](=O)[O-])c3)c2cn1` had an IC50 of 40.7 nM.
On to `COc1cc2ncnc(Nc3ccc(Br)cc3)c2cc1OC`, for which the half-maximal inhibitory concentration (IC50) stood at 0.977 nM.
Under `CC(=O)Nc1cc2ncnc(Nc3cccc(Br)c3)c2cn1` stands 29.5 nM; under `COc1cc2ncnc(Nc3cccc(Br)c3)c2cn1`, 39.8 nM.
